Experimental data from ChEMBL document CHEMBL1201862, “PubChem BioAssay data set” (2004).
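Values below derive from 48-hour exposures of cells grown in 96-well plates, with endpoints linearly interpolated between the two concentrations bracketing the appropriate inhibition level. GI50 is the concentration that inhibits growth by half.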 Calls of active or inactive are those of the source. Cut-off read from the data, not from the text of the source: active = GI50 up to about 1.1 µM and inactive = higher.

Key:
Experiment in all cases: DTP human tumour cell line panel, 48 h
A549 = system: A549
CCRF-CEM = system: CCRF-CEM
COLO 205 = system: COLO 205
EKVX = system: EKVX
HL-60 = system: HL-60
HT-29 = system: HT-29
KM12 = system: KM12
NCI-H226 = system: NCI-H226
NCI-H460 = system: NCI-H460
OVCAR-4 = system: OVCAR-4
OVCAR-8 = system: OVCAR-8
RPMI-8226 = system: RPMI-8226
SF-539 = system: SF-539
SR = system: SR
TK-10 = system: TK-10
UACC-62 = system: UACC-62
UO-31 = system: UO-31

Question: What does the source list for `Cc1ccc(NC(=O)C(=O)C2C(=O)NC(=O)NC2=O)cc1C`?
Answer: GI50 (A549): > 100 µM (inactive); GI50 (CCRF-CEM): > 100 µM (inactive); GI50 (COLO 205): > 100 µM (inactive); GI50 (EKVX): > 100 µM (inactive); GI50 (HL-60): > 100 µM (inactive); GI50 (HT-29): > 100 µM (inactive); GI50 (KM12): > 100 µM (inactive); GI50 (NCI-H226): > 100 µM (inactive); GI50 (NCI-H460): > 100 µM (inactive); GI50 (OVCAR-4): > 100 µM (inactive); GI50 (OVCAR-8): > 100 µM (inactive); GI50 (RPMI-8226): > 100 µM (inactive); GI50 (SF-539): > 100 µM (inactive); GI50 (SR): > 100 µM (inactive); GI50 (TK-10): > 100 µM (inactive); GI50 (UACC-62): > 100 µM (inactive); GI50 (UO-31): > 100 µM (inactive)

Question: What does the source list for `O=C1C2c3[nH]c4ccccc4c3[C@@H]3CCCCCCCCCCC3C2C(=O)N1c1ccccc1` (stereo partly drawn)?
Answer: GI50 (A549): 21.8 µM (inactive); GI50 (COLO 205): 23 µM (inactive); GI50 (EKVX): 55.1 µM (inactive); GI50 (HL-60): 12.1 µM (inactive); GI50 (HT-29): 27.6 µM (inactive); GI50 (KM12): 18.2 µM (inactive); GI50 (NCI-H226): 33.5 µM (inactive); GI50 (NCI-H460): 17.3 µM (inactive); GI50 (OVCAR-4): 17.6 µM (inactive); GI50 (OVCAR-8): 18.1 µM (inactive); GI50 (RPMI-8226): 38.6 µM (inactive); GI50 (SF-539): 10.1 µM (inactive); GI50 (SR): 12.8 µM (inactive); GI50 (TK-10): 20 µM (inactive); GI50 (UACC-62): 20.1 µM (inactive); GI50 (UO-31): 32.9 µM (inactive)

Question: How did the GI50 (A549) turn out when `CCCC(=O)OC[n+]1ccc2c(C)c3[nH]c4ccccc4c3c(C)c2c1` was run?
Answer: The GI50 was 0.317 µM (active).

Question: And the GI50 (CCRF-CEM)?
Answer: The GI50 was 1.66 µM (inactive).

Question: And the GI50 (COLO 205)?
Answer: The GI50 was 0.705 µM (active).

Question: And the GI50 (HL-60)?
Answer: The GI50 was 1.68 µM (inactive).

Question: And the GI50 (HT-29)?
Answer: The GI50 was > 100 µM (inactive).

Question: What about the GI50 (KM12) of the same compound?
Answer: Its GI50 is 0.377 µM (active).

Question: And the GI50 (NCI-H226)?
Answer: The GI50 was 1.11 µM (active).

Question: What about the GI50 (NCI-H460) of the same compound?
Answer: The GI50 was 0.0208 µM (active).

Question: And the GI50 (OVCAR-4)?
Answer: The GI50 was 0.706 µM (active).

Question: What about the GI50 (OVCAR-8) of the same compound?
Answer: The GI50 was 0.394 µM (active).

Question: What about the GI50 (RPMI-8226) of the same compound?
Answer: The GI50 was 0.0374 µM (active).

Question: And the GI50 (SF-539)?
Answer: Its GI50 is 0.519 µM (active).

Question: What about the GI50 (SR) of the same compound?
Answer: The GI50 was 0.0681 µM (active).

Question: What about the GI50 (TK-10) of the same compound?
Answer: Its GI50 is 1.71 µM (inactive).

Question: And the GI50 (UACC-62)?
Answer: Its GI50 is 1.5 µM (inactive).

Question: And the GI50 (UO-31)?
Answer: Its GI50 is 1.87 µM (inactive).

Question: What does the source list for `COC[C@H](C)/N=C/N1CCc2ccccc2C1(Cc1ccccc1)Cc1ccccc1`?
Answer: GI50 (A549): 30.4 µM (inactive); GI50 (CCRF-CEM): 12.9 µM (inactive); GI50 (COLO 205): 13.5 µM (inactive); GI50 (EKVX): 29.9 µM (inactive); GI50 (HL-60): 6.17 µM (inactive); GI50 (HT-29): 5.07 µM (inactive); GI50 (KM12): 13.6 µM (inactive); GI50 (NCI-H226): 18.5 µM (inactive); GI50 (NCI-H460): 12 µM (inactive); GI50 (OVCAR-4): 12.8 µM (inactive); GI50 (OVCAR-8): 15.1 µM (inactive); GI50 (RPMI-8226): 15.8 µM (inactive); GI50 (SF-539): 18.2 µM (inactive); GI50 (SR): 11.6 µM (inactive); GI50 (TK-10): 17.8 µM (inactive); GI50 (UACC-62): 26.9 µM (inactive); GI50 (UO-31): 12.9 µM (inactive)

Question: Which results are given for `CC(=O)Nc1ccc(/C=c2\sc3nnc(-c4cccnc4)n3c2=O)cc1`?
Answer: GI50 (A549): 42.1 µM (inactive); GI50 (CCRF-CEM): 17.4 µM (inactive); GI50 (COLO 205): 15.4 µM (inactive); GI50 (EKVX): 18.9 µM (inactive); GI50 (HL-60): 16.4 µM (inactive); GI50 (HT-29): 18.5 µM (inactive); GI50 (KM12): 16.8 µM (inactive); GI50 (NCI-H226): 49.7 µM (inactive); GI50 (NCI-H460): 16.3 µM (inactive); GI50 (OVCAR-4): 14.6 µM (inactive); GI50 (OVCAR-8): 17.6 µM (inactive); GI50 (SF-539): 18.7 µM (inactive); GI50 (SR): 17.3 µM (inactive); GI50 (TK-10): 21.6 µM (inactive); GI50 (UACC-62): 13.4 µM (inactive); GI50 (UO-31): 12 µM (inactive)

Question: Which GI50 (A549) does the source give for `CC(=O)OC1[C@H]2c3cc4c(cc3CN3CCC(=C[C@@H]1O)C23)OCO4` (stereo partly drawn) here?
Answer: The GI50 was > 100 µM (inactive).

Question: What about the GI50 (CCRF-CEM) of the same compound?
Answer: The GI50 was > 100 µM (inactive).

Question: What about the GI50 (COLO 205) of the same compound?
Answer: The GI50 was > 100 µM (inactive).

Question: And the GI50 (EKVX)?
Answer: Its GI50 is 34 µM (inactive).

Question: And the GI50 (HL-60)?
Answer: The GI50 was > 100 µM (inactive).

Question: And the GI50 (HT-29)?
Answer: Its GI50 is > 100 µM (inactive).

Question: What about the GI50 (KM12) of the same compound?
Answer: The GI50 was 44.4 µM (inactive).

Question: What about the GI50 (NCI-H226) of the same compound?
Answer: Its GI50 is 34.7 µM (inactive).

Question: What about the GI50 (NCI-H460) of the same compound?
Answer: Its GI50 is > 100 µM (inactive).

Question: What about the GI50 (OVCAR-8) of the same compound?
Answer: The GI50 was > 100 µM (inactive).

Question: What about the GI50 (RPMI-8226) of the same compound?
Answer: Its GI50 is > 100 µM (inactive).

Question: What about the GI50 (SF-539) of the same compound?
Answer: The GI50 was > 100 µM (inactive).

Question: And the GI50 (SR)?
Answer: The GI50 was > 100 µM (inactive).

Question: And the GI50 (TK-10)?
Answer: Its GI50 is > 100 µM (inactive).

Question: And the GI50 (UACC-62)?
Answer: Its GI50 is 53.7 µM (inactive).

Question: What about the GI50 (UO-31) of the same compound?
Answer: Its GI50 is > 100 µM (inactive).
